Article PMC11748363, “Antimicrobial and Antiproliferative Properties of 2‐Phenyl‐N‐(Pyridin‐2‐yl)acetamides” (Chemical Biology & Drug Design, 2025)
In brackets after ≈: the same amount, converted by molar mass. Like-named read-outs stand apart in the source and are kept apart here.

How the values were obtained:
[1] = tested on: Mycobacterium tuberculosis H37Ra; test: Antimycobacterial microdilution broth MIC (resazurin), Mtb H37Ra; format: cell-based; conditions: for MIC: Mycobacterium tuberculosis, H37RA, read-out: MIC Mtb H37Ra
[2] = tested on: Mycolicibacterium smegmatis DSM 43465; test: Antimycobacterial microdilution broth MIC (resazurin), M. smegmatis; format: cell-based; conditions: DSM43465, read-out: MIC M. smegmatis
[3] = tested on: Mycolicibacterium aurum DSM 43999; test: Antimycobacterial microdilution broth MIC (resazurin), M. aurum; format: cell-based; conditions: DSM43999, read-out: MIC M. aurum
[4] = tested on: HepG2 cell line; test: Cytotoxicity CellTiter 96, HepG2; format: cell-based, human; conditions: Homo sapiens, HepG2, 24 h, 24 h incubation; ^c compound precipitated in the testing medium; ^d over the limit of tested concentrations
[5] = tested on: Staphylococcus aureus CCM 4223, ATCC 29213; test: Antibacterial microdilution broth MIC, SA; format: cell-based; conditions: Staphylococcus aureus
[6] = tested on: Staphylococcus aureus subsp. aureus CCM 4750, ATCC 43300 (MRSA); test: Antibacterial microdilution broth MIC, MRSA; format: cell-based; conditions: Staphylococcus aureus
[7] = tested on: Staphylococcus epidermidis CCM 4418, ATCC 12228; test: Antibacterial microdilution broth MIC, SE; format: cell-based
[8] = tested on: Enterococcus faecalis CCM 4224, ATCC 29212; test: Antibacterial microdilution broth MIC, EF; format: cell-based
[9] = tested on: Escherichia coli CCM 3954, ATCC 25922; test: Antibacterial microdilution broth MIC, EC; format: cell-based
[10] = tested on: Acinetobacter baumannii DSM 30007, ATCC 19606; test: Antibacterial microdilution broth MIC, ACI; format: cell-based
[11] = tested on: Pseudomonas aeruginosa CCM 3955, ATCC 27853; test: Antibacterial microdilution broth MIC, PA; format: cell-based
[12] = tested on: Candida albicans CCM 8320, ATCC 24433; test: Antifungal microdilution broth MIC, CA
[13] = tested on: Candida krusei CCM 8271, ATCC 6258; test: Antifungal microdilution broth MIC, CK; conditions: Pichia kudriavzevii
[14] = tested on: Candida parapsilosis CCM 8260, ATCC 22019; test: Antifungal microdilution broth MIC, CP; conditions: Lodderomyces parapsilosis
[15] = tested on: Candida tropicalis CCM 8264, ATCC 750; test: Antifungal microdilution broth MIC, CT
[16] = tested on: Aspergillus fumigatus ATCC 204305; test: Antifungal microdilution broth MIC, AF
[17] = tested on: Lichtheimia corymbifera CCM 8077; test: Antifungal microdilution broth MIC, LC
[18] = tested on: Trichophyton interdigitale CCM 8377, ATCC 9533; test: Antifungal microdilution broth MIC, TI; conditions: Trichophyton interdigitale
[19] = tested on: Aspergillus flavus CCM 8363; test: Antifungal microdilution broth MIC, AFla
[20] = tested on: Klebsiella pneumoniae CCM 4415, ATCC 10031; test: Antibacterial microdilution broth MIC, KP
[21] = ATCC204305, 24 h, read-out: MIC AF 24h
[22] = ATCC204305, 48 h, read-out: MIC AF 48h
[23] = CCM8077, 24 h, read-out: MIC LC 24h
[24] = CCM8077, 48 h, read-out: MIC LC 48h
[25] = CCM8363, 24 h, read-out: MIC AFla 24h
[26] = CCM8363, 48 h, read-out: MIC AFla 48h

In the case of COc1cccc(CC(=O)Nc2ccc(Cl)cn2)c1 [Compound 8, 2-(3-methoxyphenyl)-N-(5-chloropyridin-2-yl)acetamide], the MIC ([1]; Calculated from MIC (μg/mL)) is reported as 113 µM, the MIC [1] is reported as 31.2 µg/mL and the “SI (selectivity index)” value ([1]; SI = HepG2 IC50 (μM)/MIC MtbH37Ra (μM), calculated for compounds with MIC ≤ 31.25 μg/mL) is reported as 1.4. The MIC [2] was > 500 µg/mL, the MIC [3] was > 500 µg/mL and the IC50 [4] was 158 µM. The MIC ([5]; 24 h, read-out: MIC SA 24h) was 500 µM (≈ 138 µg/mL), the MIC ([5]; 48 h, read-out: MIC SA 48h) was > 500 µM and the MIC ([6]; 24 h, read-out: MIC MRSA 24h) was > 500 µM. For the same compound, the MIC ([6]; 48 h, read-out: MIC MRSA 48h) was > 500 µM, the MIC ([7]; 24 h, read-out: MIC SE 24h) was 250 µM (≈ 69.2 µg/mL) and the MIC ([7]; 48 h, read-out: MIC SE 48h) was > 500 µM. For the same compound, the MIC ([8]; 24 h, read-out: MIC EF 24h) was > 500 µM, the MIC ([8]; 48 h, read-out: MIC EF 48h) was > 500 µM and the MIC ([9]; 24 h, read-out: MIC EC 24h) was > 500 µM. For the same compound, the MIC ([9]; 48 h, read-out: MIC EC 48h) was > 500 µM, the MIC ([10]; 24 h, read-out: MIC ACI 24h) was > 500 µM and the MIC ([10]; 48 h, read-out: MIC ACI 48h) was > 500 µM. For the same compound, the MIC ([11]; 24 h, read-out: MIC PA 24h) was > 500 µM, the MIC ([11]; 48 h, read-out: MIC PA 48h) was > 500 µM and the MIC ([12]; 24 h, read-out: MIC CA 24h) was > 500 µM. The MIC ([12]; 48 h, read-out: MIC CA 48h) was > 500 µM, the MIC ([13]; 24 h, read-out: MIC CK 24h) was 500 µM (≈ 138 µg/mL) and the MIC ([13]; 48 h, read-out: MIC CK 48h) was 500 µM (≈ 138 µg/mL). The MIC ([14]; 24 h, read-out: MIC CP 24h) was > 500 µM, the MIC ([14]; 48 h, read-out: MIC CP 48h) was > 500 µM and the MIC ([15]; 24 h, read-out: MIC CT 24h) was > 500 µM. The MIC ([15]; 48 h, read-out: MIC CT 48h) was > 500 µM, the MIC [16, 21] was > 500 µM and the MIC [16, 22] was > 500 µM. It also gave an MIC [17, 23] of 500 µM (≈ 138 µg/mL), an MIC [17, 24] of 500 µM (≈ 138 µg/mL) and an MIC ([18]; 72 h, read-out: MIC TI 72h) of 500 µM (≈ 138 µg/mL). The MIC ([18]; 120 h, read-out: MIC TI 120h) was 500 µM (≈ 138 µg/mL), the MIC [19, 25] was 500 µM (≈ 138 µg/mL) and the MIC [19, 26] was 500 µM (≈ 138 µg/mL). For the same compound, the “MIC KP 24h” value [20] was > 500 µmol/L and the “MIC KP 48h” value [20] was > 500 µmol/L.

COc1cccc(CC(=O)Nc2cccc(Cl)n2)c1 [Compound 9, 2-(3-methoxyphenyl)-N-(6-chloropyridin-2-yl)acetamide] gave an MIC ([1]; Calculated from MIC (μg/mL)) of 900 µM, an MIC [1] of 250 µg/mL and an MIC [2] of 125 µg/mL (≈ 452 µM). The MIC [3] was > 500 µg/mL, the IC50 [4] was 638 µM and the MIC ([5]; 24 h, read-out: MIC SA 24h) was > 500 µM. For the same compound, the MIC ([5]; 48 h, read-out: MIC SA 48h) was > 500 µM, the MIC ([6]; 24 h, read-out: MIC MRSA 24h) was > 500 µM and the MIC ([6]; 48 h, read-out: MIC MRSA 48h) was > 500 µM. For the same compound, the MIC ([7]; 24 h, read-out: MIC SE 24h) was > 500 µM, the MIC ([7]; 48 h, read-out: MIC SE 48h) was > 500 µM and the MIC ([8]; 24 h, read-out: MIC EF 24h) was > 500 µM. For the same compound, the MIC ([8]; 48 h, read-out: MIC EF 48h) was > 500 µM, the MIC ([9]; 24 h, read-out: MIC EC 24h) was > 500 µM and the MIC ([9]; 48 h, read-out: MIC EC 48h) was > 500 µM. The MIC ([10]; 24 h, read-out: MIC ACI 24h) was > 500 µM, the MIC ([10]; 48 h, read-out: MIC ACI 48h) was > 500 µM and the MIC ([11]; 24 h, read-out: MIC PA 24h) was > 500 µM. The MIC ([11]; 48 h, read-out: MIC PA 48h) was > 500 µM, the MIC ([12]; 24 h, read-out: MIC CA 24h) was 500 µM (≈ 138 µg/mL) and the MIC ([12]; 48 h, read-out: MIC CA 48h) was 500 µM (≈ 138 µg/mL). It also gave an MIC ([13]; 24 h, read-out: MIC CK 24h) of 500 µM (≈ 138 µg/mL), an MIC ([13]; 48 h, read-out: MIC CK 48h) of 500 µM (≈ 138 µg/mL) and an MIC ([14]; 24 h, read-out: MIC CP 24h) of 500 µM (≈ 138 µg/mL). The MIC ([14]; 48 h, read-out: MIC CP 48h) was 500 µM (≈ 138 µg/mL), the MIC ([15]; 24 h, read-out: MIC CT 24h) was 500 µM (≈ 138 µg/mL) and the MIC ([15]; 48 h, read-out: MIC CT 48h) was 500 µM (≈ 138 µg/mL). The MIC [16, 21] was 500 µM (≈ 138 µg/mL), the MIC [16, 22] was > 500 µM and the MIC [17, 23] was 500 µM (≈ 138 µg/mL). For the same compound, the MIC [17, 24] was > 500 µM, the MIC ([18]; 72 h, read-out: MIC TI 72h) was 500 µM (≈ 138 µg/mL) and the MIC ([18]; 120 h, read-out: MIC TI 120h) was > 500 µM. The MIC [19, 25] was 500 µM (≈ 138 µg/mL), the MIC [19, 26] was > 500 µM and the “MIC KP 24h” value [20] was > 500 µmol/L. The “MIC KP 48h” value [20] was > 500 µmol/L.

COc1ccc(CC(=O)Nc2ccccn2)cc1 [Compound 10, 2-(4-methoxyphenyl)-N-(pyridin-2-yl)acetamide] gave an MIC ([1]; Calculated from MIC (μg/mL)) of 516 µM, an MIC [1] of 125 µg/mL and an MIC [2] of 62.5 µg/mL (≈ 258 µM). The MIC [3] was 250 µg/mL (≈ 1030 µM), the IC50 [4] was > 1000 µM and the MIC ([5]; 24 h, read-out: MIC SA 24h) was > 500 µM. The MIC ([5]; 48 h, read-out: MIC SA 48h) was > 500 µM, the MIC ([6]; 24 h, read-out: MIC MRSA 24h) was > 500 µM and the MIC ([6]; 48 h, read-out: MIC MRSA 48h) was > 500 µM. The MIC ([7]; 24 h, read-out: MIC SE 24h) was 500 µM (≈ 121 µg/mL), the MIC ([7]; 48 h, read-out: MIC SE 48h) was 500 µM (≈ 121 µg/mL) and the MIC ([8]; 24 h, read-out: MIC EF 24h) was > 500 µM. For the same compound, the MIC ([8]; 48 h, read-out: MIC EF 48h) was > 500 µM, the MIC ([9]; 24 h, read-out: MIC EC 24h) was > 500 µM and the MIC ([9]; 48 h, read-out: MIC EC 48h) was > 500 µM. The MIC ([10]; 24 h, read-out: MIC ACI 24h) was > 500 µM, the MIC ([10]; 48 h, read-out: MIC ACI 48h) was > 500 µM and the MIC ([11]; 24 h, read-out: MIC PA 24h) was > 500 µM. For the same compound, the MIC ([11]; 48 h, read-out: MIC PA 48h) was > 500 µM, the MIC ([12]; 24 h, read-out: MIC CA 24h) was > 500 µM and the MIC ([12]; 48 h, read-out: MIC CA 48h) was > 500 µM. The MIC ([13]; 24 h, read-out: MIC CK 24h) was 500 µM (≈ 121 µg/mL), the MIC ([13]; 48 h, read-out: MIC CK 48h) was 500 µM (≈ 121 µg/mL) and the MIC ([14]; 24 h, read-out: MIC CP 24h) was > 500 µM. The MIC ([14]; 48 h, read-out: MIC CP 48h) was > 500 µM, the MIC ([15]; 24 h, read-out: MIC CT 24h) was > 500 µM and the MIC ([15]; 48 h, read-out: MIC CT 48h) was > 500 µM. The MIC [16, 21] was > 500 µM, the MIC [16, 22] was > 500 µM and the MIC [17, 23] was > 500 µM. For the same compound, the MIC [17, 24] was > 500 µM, the MIC ([18]; 72 h, read-out: MIC TI 72h) was 500 µM (≈ 121 µg/mL) and the MIC ([18]; 120 h, read-out: MIC TI 120h) was 500 µM (≈ 121 µg/mL). The MIC [19, 25] was > 500 µM, the MIC [19, 26] was > 500 µM and the “MIC KP 24h” value [20] was > 500 µmol/L. For the same compound, the “MIC KP 48h” value [20] was > 500 µmol/L.
